In US20250002453A1, “PHARMACEUTICALLY ACCEPTABLE SALT OF ELIGLUSTAT AND CRYSTAL FORM THEREOF” (SPEROGENIX (SHANGHAI) MEDTECH CO., LTD., priority 2021, published 2025):

Legend:
[1] = Deliquescence / moisture uptake observed under room humidity or during XRPD testing; format: physicochemical; details: under room humidity conditions
Protocol: Free crystalline form A and 0.5 equivalent of L-malic acid were suspended and stirred in EtOAc for 1 day at room temperature to obtain the sample. The solid was separated by centrifugation and dried under vacuum to obtain crystalline form A of malate.
Free crystalline form A and 0.5 equivalent of L-malic acid were suspended and stirred in IPAc/n-heptane (1:5, v:v) for 1 day at room temperature and 2 days at 40° C., and then the solid was separated by centrifugation. Upon vacuum drying, crystalline form B of malate was obtained.

[2] = as described in WO2011066352A1; cited from earlier work
[3] = plasma concentration of eliglustat 500 ng/ml; cited from earlier work
[4] = Dynamic solubility test (water, SGF, FaSSIF, FeSSIF; 37° C.; 1, 4 and 24 hours); format: physicochemical; details: 37° C.; for FC: Crystalline form transformation: XRPD of residual solid
Protocol: 0.2 g sodium chloride and 0.1 g Triton X-100 are weighted into a 100 mL volumetric flask. Pure water is added for dissolution, stirred until the solid is completely dissolved, about 1.632 mL hydrochloric acid (1M) is added, and the pH is adjusted to 1.8 with 1M hydrochloric acid or 1M sodium hydroxide, and finally it is diluted to volume with pure water.
0.34 g sodium dihydrogen phosphate (NaH2PO4, anhydrous), 0.042 g sodium hydroxide, and 0.62 g sodium chloride are weighted respectively into a 100 mL volumetric flask, about 48 mL pure water is added for dissolution, the pH is adjusted to 6.5 with 1M hydrochloric acid or 1M sodium hydroxide, and finally it is diluted to volume with pure water to obtain a stock solution. A 50-mL volumetric flask is taken. 0.11 g of SIF powder is added, and dissolved with the above stock solution, then diluted to volume. The powder is completely dissolve by ultrasound.
(§1) The purity test, dynamic solubility and stability test in the experiment are completed by Agilent 1260 high performance liquid chromatography. The salt-forming molar ratio test of ions is completed by ion chromatography test.
The dynamic solubility of crystalline form B/crystalline form C of 1,5-naphthalene disulfonate, crystalline form A of oxalate, crystalline form A of tartrate and free crystalline form A in water and three biological solvents were evaluated.
After sampling at each time point, the samples were centrifugally filtered (0.45 μm PTFE filter head), the free salt concentration and pH value in the filtrate were measured, and the solid samples after centrifugation were tested for XRPD.

[5] = Solid state stability assessment (XRPD and HPLC after exposure at 25° C./60% RH and 40° C./75% RH); format: physicochemical; details: 1 week of exposure at 25° C./60% RH and 40° C./75% RH
Protocol: XRPD patterns are collected on an X-ray powder diffraction analyzer produced by PANalytacal, and Table 2 lists the XRPD parameters.
as §1
After leaving the crystalline form C of 1,5-naphthalene disulfonate in the exposure evaporation at 25° C./60% RH and 40° C./75% RH for 1 week, […] and 4 weeks. The physical and chemical stability of the sample was tested by XRPD and HPLC, and the stability data of crystalline form A of tartrate and free crystalline form A at 1 week, 2 weeks and 4 weeks were used as a reference. At the same time, the stability of crystalline form B of 1,5-naphthalene disulfonate and crystalline form A of oxalate was tested under the conditions of 25° C./60% RH and 40° C./75% RH for 1 week.

[6] = Evaluation of hygroscopicity by Dynamic Vapor Sorption (DVS); format: physicochemical; details: for Transformation of crystalline form: after DVS test
Protocol: Dynamic Vapor Sorption (DVS) profiles are collected on the DVS Intrinsic of SMS (Surface Measurement Systems). Relative humidity at 25° C. is corrected with the deliquescent points of LiCl, Mg(NO3)2 and KCl.
The hygroscopicity of crystalline form B/crystalline form C of 1,5-naphthalene disulfonate, crystalline form A of oxalate, crystalline form A of tartrate and free crystalline form A were evaluated by DVS.

SMILES: CCCCCCCC(=O)NC(CN1CCCC1)C(O)c1ccc2c(c1)OCCO2.O=C(O)CC(O)C(=O)O (stereo not drawn) [Crystalline form A of malate]
- deliquescence / moisture absorption [1]: deliquesced significantly

SMILES: CCCCCCCC(=O)NC(CN1CCCC1)C(O)c1ccc2c(c1)OCCO2.O=C(O)C(O)C(O)C(=O)O (stereo not drawn) [1:1 tartrate salt]
- hygroscopicity (in words) [2]: too hygroscopic for formulation

SMILES: CCCCCCCC(=O)N[C@H](CN1CCCC1)[C@H](O)c1ccc2c(c1)OCCO2 [eliglustat]
- predicted mean increase in PR interval [3]: 22 (26) milliseconds
- predicted mean increase in QRS interval [3]: 7 (10) milliseconds
- predicted mean increase in QTcF interval [3]: 13 (19) milliseconds

SMILES: CCCCCCCC(=O)N[C@H](CN1CCCC1)[C@H](O)c1ccc2c(c1)OCCO2.Cl [hydrochloride salt]
- hygroscopicity (in words) [2]: too hygroscopic for formulation

SMILES: CCCCCCCC(=O)N[C@H](CN1CCCC1)[C@H](O)c1ccc2c(c1)OCCO2.CCCCCCCC(=O)N[C@H](CN1CCCC1)[C@H](O)c1ccc2c(c1)OCCO2.O=C(O)C(=O)O [Crystalline form A of oxalate]
- S: Solubility (free concentration) ([4]; FaSSIF, 1 hr): ≥8.1 mg/mL
- pH (of filtrate) ([4]; FaSSIF, 1 hr): 6.52
- S: Solubility (free concentration) ([4]; FaSSIF, 4 hrs): ≥8.2 mg/mL
- pH (of filtrate) ([4]; FaSSIF, 4 hrs): 6.48
- S: Solubility (free concentration) ([4]; FaSSIF, 12 hrs): ≥8.1 mg/mL
- pH (of filtrate) ([4]; FaSSIF, 12 hrs): 6.47
- S: Solubility (free concentration) ([4]; H2O, 1 hr): 6.8 mg/mL
- pH (of filtrate) ([4]; H2O, 1 hr): 7.07
- FC: Crystalline form transformation ([4]; H2O, 1 hr): No
- S: Solubility (free concentration) ([4]; H2O, 4 hrs): 7.8 mg/mL
- pH (of filtrate) ([4]; H2O, 4 hrs): 7.51
- FC: Crystalline form transformation ([4]; H2O, 4 hrs): No
- S: Solubility (free concentration) ([4]; H2O, 12 hrs): 8.0 mg/mL
- pH (of filtrate) ([4]; H2O, 12 hrs): 7.30
- FC: Crystalline form transformation ([4]; H2O, 12 hrs): No
- S: Solubility (free concentration) ([4]; SGF, 1 hr): ≥8.4 mg/mL
- pH (of filtrate) ([4]; SGF, 1 hr): 2.19
- S: Solubility (free concentration) ([4]; SGF, 4 hrs): ≥8.5 mg/mL
- pH (of filtrate) ([4]; SGF, 4 hrs): 2.17
- S: Solubility (free concentration) ([4]; SGF, 12 hrs): ≥8.2 mg/mL
- pH (of filtrate) ([4]; SGF, 12 hrs): 2.05
- decrease in HPLC purity [5]: no decrease in HPLC purity was observed
- Hygroscopic weight gain at 25° C./80% RH ([6]; DVS, 25° C./80% RH): 7.64%
- hygroscopic weight gain at 25° C./80% RH ([6]; DVS, 25° C./80% RH): 7.64 wt %
- Transformation of crystalline form [6]: No change
- Transformation of crystalline form ([6]; listed as crystalline form A of oxalate): no change in crystalline form
- weight loss (in words) ([6]; humidity lower than 10% RH): Significant weight loss
